Patent US6083932A, “Pharmaceutical compositions derived from ginseng and methods of treatment using same” (CV Technologies Inc., priority 1998, dated 2000)

Key:
[1] = system: choline uptake into synaptosomes, whole brain; assay: choline uptake into synaptosomes from rat whole brain; assay type: biochemical; settings: various doses; n=10
Description: We also studied the effects of HT1001 on choline uptake in synaptosomes.
We have examined choline uptake in synaptosome preparations from whole brain and hippocampus in the presence of Rb1, HT1001 and HC3.
The magnitude of these effects are consistent with the previous studies.

[2] = system: choline uptake into synaptosomes, whole brain; settings: Benishin 1992 / previously demonstrated; cited from earlier work
[3] = system: choline uptake in rat brain synaptomes; assay: choline uptake in rat brain synaptosomes (Example 2); assay type: biochemical; settings: mean ± SE, n = 4
Description: Example 2 is a comparison of several batches of Rb1 extract, an extract of total ginsenosides (TS) containing 25% Rb1, 19.4% Rc1 and 21.6% Rg1+Re, and HT1001 on choline uptake in rat brain synaptomes. The Rb1 tested had greater than 98% purity. Rb1-52, Rb1-53 and Rb1-54 represent three different batches of Rb1.

monoamine oxidase-B = molecular target: T1, monoamine oxidase-B (Rattus norvegicus, UniProt P19643); assay: in vitro monoamine oxidase-B inhibiting activity (radiochemical, β-phenylethylamine substrate); assay type: biochemical; settings: read-out: inhibition of monoamine oxidase B activity
T1 construct: homogenates of rat brain; from tissue; host or cells: rat brain homogenate
T1 sequence (P19643 1-520): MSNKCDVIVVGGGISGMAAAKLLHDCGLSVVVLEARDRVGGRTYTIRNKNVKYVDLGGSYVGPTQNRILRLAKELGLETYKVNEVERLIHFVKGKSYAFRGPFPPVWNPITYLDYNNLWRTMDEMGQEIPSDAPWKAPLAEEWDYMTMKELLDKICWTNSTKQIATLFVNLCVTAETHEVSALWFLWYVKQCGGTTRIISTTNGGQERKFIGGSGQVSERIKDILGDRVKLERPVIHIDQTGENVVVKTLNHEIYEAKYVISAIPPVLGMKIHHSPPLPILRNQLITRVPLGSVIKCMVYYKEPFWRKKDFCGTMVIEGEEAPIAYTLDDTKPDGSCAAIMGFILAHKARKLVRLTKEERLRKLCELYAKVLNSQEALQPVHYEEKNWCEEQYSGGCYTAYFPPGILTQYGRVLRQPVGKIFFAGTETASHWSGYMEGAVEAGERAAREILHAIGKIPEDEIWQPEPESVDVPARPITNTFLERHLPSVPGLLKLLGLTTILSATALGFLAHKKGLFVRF
Experimental: (§1) Example 1 is a study of the effects of several extracts of HT1001, PQ4, PQ5, PQ6 and pure ginsenosides, on monoamine oxidase A (MAO A) and monoamine oxidase B (MAO B) activity in vitro.
(§2) HT-1001, related extracts and pure ginsenosides were evaluated for in vitro monoamine oxidase-A and monoamine oxidase-B inhibiting activity using the radiochemical procedure of Lyles and Callingham, Biochem. Pharmacol. 31: 1417-1424 (1982), employing either radiolabelled 5-hydroxytryptamine or β-phenylethylamine as substrates for monoamine oxidase-A (MAO-A) or monoamine oxidase-B (MAO-B) respectively. Various concentrations of the compounds of interest were incubated in appropriately diluted homogenates of rat brain in a 0.2 M potassium phosphate buffer. After a 15 minute preincubation period the reaction was initiated by the addition of substrate. Incubations proceded at 37° C. for 10 minutes. Incubation was terminated by the addition of acid and the radiolabelled products (5-hydroxyindoleacetic acid, 5-hydroxyindoleacetaldehyde or phenylacetic acid, phenylacetaldehyde) were extracted and quantified by liquid scintillation counting procedures. Incubations were done in triplicate and incubations including pheneizine a known MAO inhibitor were included as controls and for comparison. The percent inhibition of monoamine oxidase-A or monoamine oxidase-B activity compared to controls containing no experimental material was calculated.

monoamine oxidase-A = molecular target: T2, monoamine oxidase-A (Rattus norvegicus, UniProt P21396); assay: in vitro monoamine oxidase-A inhibiting activity (radiochemical, 5-hydroxytryptamine substrate); assay type: biochemical; settings: read-out: inhibition of monoamine oxidase A activity
T2 construct: homogenates of rat brain; from tissue; host or cells: rat brain homogenate
T2 sequence (P21396 1-526): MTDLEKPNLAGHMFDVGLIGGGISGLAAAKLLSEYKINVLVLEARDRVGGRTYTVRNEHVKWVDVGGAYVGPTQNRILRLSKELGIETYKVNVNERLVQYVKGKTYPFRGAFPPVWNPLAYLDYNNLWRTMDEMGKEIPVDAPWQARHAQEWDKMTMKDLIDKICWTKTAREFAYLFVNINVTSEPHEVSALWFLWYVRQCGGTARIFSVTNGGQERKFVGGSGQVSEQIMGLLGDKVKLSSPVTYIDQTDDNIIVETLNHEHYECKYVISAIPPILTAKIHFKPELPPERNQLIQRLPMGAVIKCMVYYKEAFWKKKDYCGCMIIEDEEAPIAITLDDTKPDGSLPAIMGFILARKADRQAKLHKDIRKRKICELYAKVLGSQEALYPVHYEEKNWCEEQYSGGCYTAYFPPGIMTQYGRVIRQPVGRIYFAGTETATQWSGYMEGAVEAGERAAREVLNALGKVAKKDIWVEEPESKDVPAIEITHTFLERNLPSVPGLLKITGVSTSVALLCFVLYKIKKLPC
Experimental: as §1, §2

rats = assay: Morris water maze, learning and memory, scopolamine induced amnesia; assay type: in vivo, rat; settings: for mean latency: scopolamine 2 mg/kg, all scopolamine treated animals; for memory effect of scopolamine treatment: 2 mg/kg
Description: First, we studied the effects of HT1001 on Learning and Memory. […] As HT1001 is a mixture of ginsenosides, it may not have the same properties as pure Rb1. […] Rats are required to learn the location of a hidden platform in a swimming pool. […] The effects of HT1001 on memory can also be examined in scopolamine induced amnesia. If HT1001 enhances memory it should protect against memory loss in scopolamine treated animals.
The Morris water maze task was based on methods previously described (Pitsikas et al, Pharmacol. Biochem. Behav. 47: 95-99 (1994); Smith et al, Psychopharmacol. 114: 651-656 (1994)). The apparatatus consisted of a circular pool (1.7 m diameter, 35 cm deep) which contained water (30° C.) made cloudy by the presence of powdered milk. A moveable platform (10 cm×11.5 cm and 20 cm tall) was placed in the pool such that it was submerged by 3 cm and could not be seen. Each trial involved placing the rat in the pool in one of the four equally spaced quadrants in which the pool was divided. Visual cues consisting of large posters were placed on the walls of the room in which the experiment was conducted, and the experimenters maintained established positions throughout each experiment. During the learning period, animals were allowed to swim freely until they found the escape platform. […] During the initial learning period, all rats were tested sequentially and were given 4 trials per day during which the escape platform was located in a fixed position in the center of the pool. During the scopolamine trials rats were tested sequentially three times on cach day with the three trials being performed between 30 and 45 minutes following scopolamine or saline injection, The latency to reach the platform was recorded.
Experimental Design for Learning and Memory Testing
The specific aim of the experiment was to test if HT1001 affected the acquisition, retention and/or recall of a new task in the presence of scopolamine-induced amnesia. Rats were initially divided into two groups and fed either water (0.5 ml) or HT1001 (200 mg/kg/day in 0.5 ml water by gavage) for the duration of the experiment. Eight days after the initiation of water or HT1001 administration, rats were given the task of learning the position of a platform concealed at the center of the Morris water maze. The rats were placed in the pool 4 times per day for 5 days and the time required to find the platform was recorded (maximum duration 300 seconds). Latency became shorter as the rats learned the task. On day 14, the two groups of rats were further subdivided into four groups. […] In each instance the time to locate the platform (latency) was recorded. […]

PC12 cells = assay: neurite outgrowth in PC12 cells; assay type: cell-based; settings: seven days after treatment
Experimental: A study of the neurotrophic effects of HT1001 and some pure ginsenosides was conducted. A new mechanism of action for HT1001 was shown, which is the stimulation of neurite outgrowth in a PC12 cell line. […] The beneficial effects (prevention/treatment) of HT-1001 may apply to degenerative diseases such as senile dementia, Parkinson's disease, Alzheimer's disease, multi-infarct dementia, etc. Alzheimer's disease (AD) is associated with degeneration of cholinergic nerve tracts including projections from the basal forebrain to the cortex and hippocampus. The PC12 (pheochromocytoma) cell line is one of the models for the study of the development of these nerve tracts. The cell line is phenotypically a chromaffin cell line, but can be induced to express adrenergic and cholinergic markers as well. This model has the advantages that (1) it is an immortalized cell line, (2) it is sensitive to, but not dependent upon, NGF for survival, and (3) it shares many properties in common with the central cholinergic neurons of the basal forebrain. It has been noted that PC12 cells are not sensitive to all of the trophic factors that central cholinergic neurons respond to, whereas central cholinergic neurons respond to all trophic factors that PC12 cells respond to. […] The cellular responses to Nerve Growth Factor (NGF) and samples were determined by counting the number of cells containing processes in PC12 cells. […] The cells and neurites were counted as follows: The cells with circular or global shape and no neurite outgrowth were scored as 0 (S0). […] Cells with more than two small neurites on the cell bodies were scored as S2. Cells with one or two neurites with a length of at least two times diameter as their body were scored as S3. Cells with more than two long neurites were scored as S4. The neurite index was calculated as below: Neurite index (In)=total neurite Score (ΣS)/total cell number (.[…] is the cell number of every cell field. The test samples included: […]

In the case of `C[N+]1(C)CCOC(O)(c2ccc(-c3ccc(C4(O)C[N+](C)(C)CCO4)cc3)cc2)C1` (stereo not drawn) [HC3], the “choline uptake by rat brain synaptosomes (FIG. 28, in words)” value [1] is listed as “inhibits choline uptake” and the “choline uptake (literature)” value [2] is listed as “inhibit choline uptake”.
In the case of `CC(C)=CCC[C@](C)(O[C@@H]1O[C@H](CO[C@@H]2O[C@H](CO)[C@@H](O)[C@H](O)[C@H]2O)[C@@H](O)[C@H](O)[C@H]1O)[C@H]1CC[C@]2(C)[C@@H]1[C@H](O)C[C@@H]1[C@@]3(C)CC[C@H](O[C@@H]4O[C@H](CO)[C@@H](O)[C@H](O)[C@H]4O[C@@H]4O[C@H](CO)[C@@H](O)[C@H](O)[C@H]4O)C(C)(C)[C@@H]3CC[C@]12C` [Rb1-52, ginsenoside Rb1], the choline uptake ([3]; 0.0011 mg/l) is reported as 108 ± 5.7 % of control, the choline uptake ([3]; 0.011 mg/l) is reported as 108 ± 4.4 % of control and the choline uptake ([3]; 0.11 mg/l) is reported as 108 ± 5.8 % of control. The choline uptake ([3]; 1.1 mg/l) was 109 ± 5.4 % of control and the choline uptake ([3]; 11 mg/l) was 111 ± 3.7 % of control.
In the case of `CC(C)=CCC[C@](C)(O[C@@H]1O[C@H](CO[C@@H]2O[C@H](CO)[C@@H](O)[C@H](O)[C@H]2O)[C@@H](O)[C@H](O)[C@H]1O)[C@H]1CC[C@]2(C)[C@@H]1[C@H](O)C[C@@H]1[C@@]3(C)CC[C@H](O[C@@H]4O[C@H](CO)[C@@H](O)[C@H](O)[C@H]4O[C@@H]4O[C@H](CO)[C@@H](O)[C@H](O)[C@H]4O)C(C)(C)[C@@H]3CC[C@]12C` [Rb1-53, ginsenoside Rb1], the choline uptake ([3]; 0.0011 mg/l) is reported as 106 ± 1.3 % of control, the choline uptake ([3]; 0.011 mg/l) is reported as 109 ± 3.6 % of control and the choline uptake ([3]; 0.11 mg/l) is reported as 109 ± 3.8 % of control. For the same compound, the choline uptake ([3]; 1.1 mg/l) was 112 ± 4.8 % of control and the choline uptake ([3]; 11 mg/l) was 114 ± 2.5 % of control.
For `CC(C)=CCC[C@](C)(O[C@@H]1O[C@H](CO[C@@H]2O[C@H](CO)[C@@H](O)[C@H](O)[C@H]2O)[C@@H](O)[C@H](O)[C@H]1O)[C@H]1CC[C@]2(C)[C@@H]1[C@H](O)C[C@@H]1[C@@]3(C)CC[C@H](O[C@@H]4O[C@H](CO)[C@@H](O)[C@H](O)[C@H]4O[C@@H]4O[C@H](CO)[C@@H](O)[C@H](O)[C@H]4O)C(C)(C)[C@@H]3CC[C@]12C` [Rb1-54, ginsenoside Rb1], the choline uptake ([3]; 0.0011 mg/l) was 108 ± 3 % of control, the choline uptake ([3]; 0.011 mg/l) was 110 ± 3.4 % of control and the choline uptake ([3]; 0.11 mg/l) was 110 ± 2.6 % of control. For the same compound, the choline uptake ([3]; 1.1 mg/l) was 112 ± 1.2 % of control and the choline uptake ([3]; 11 mg/l) was 111 ± 2.6 % of control.
`NNCCc1ccccc1` [phenylzine] showed an inhibition at 100 µM (monoamine oxidase-B) of 93% and an inhibition at 100 µM (monoamine oxidase-A) of 97.5%.
For `CN1[C@@H]2C[C@@H](OC(=O)[C@H](CO)c3ccccc3)C[C@H]1[C@@H]1O[C@@H]12` [scopolamine], the mean latency (rats; day 14, third trial) was 39.5 ± 8.2 s, the “memory effect of scopolamine treatment” value (rats; day 15) was “produces a memory deficit” and the mean latency (rats; day 16, third trial) was 18.4 ± 2.9 s. The “memory effect of scopolamine treatment” value (rats; day 17) was “produces a memory deficit”.
For Nerve Growth Factor [NGF], the “neurite outgrowth (FIG. 29)” value (PC12 cells) was “increased neurite outgrowth in PC12 cells in a dose-dependent manner”.
